The target of experiment [1] is T1, 1-deoxy-D-xylulose-5-phosphate synthase, chloroplastic (Arabidopsis thaliana, UniProt Q38854).
T1 sequence (Q38854 whole entry): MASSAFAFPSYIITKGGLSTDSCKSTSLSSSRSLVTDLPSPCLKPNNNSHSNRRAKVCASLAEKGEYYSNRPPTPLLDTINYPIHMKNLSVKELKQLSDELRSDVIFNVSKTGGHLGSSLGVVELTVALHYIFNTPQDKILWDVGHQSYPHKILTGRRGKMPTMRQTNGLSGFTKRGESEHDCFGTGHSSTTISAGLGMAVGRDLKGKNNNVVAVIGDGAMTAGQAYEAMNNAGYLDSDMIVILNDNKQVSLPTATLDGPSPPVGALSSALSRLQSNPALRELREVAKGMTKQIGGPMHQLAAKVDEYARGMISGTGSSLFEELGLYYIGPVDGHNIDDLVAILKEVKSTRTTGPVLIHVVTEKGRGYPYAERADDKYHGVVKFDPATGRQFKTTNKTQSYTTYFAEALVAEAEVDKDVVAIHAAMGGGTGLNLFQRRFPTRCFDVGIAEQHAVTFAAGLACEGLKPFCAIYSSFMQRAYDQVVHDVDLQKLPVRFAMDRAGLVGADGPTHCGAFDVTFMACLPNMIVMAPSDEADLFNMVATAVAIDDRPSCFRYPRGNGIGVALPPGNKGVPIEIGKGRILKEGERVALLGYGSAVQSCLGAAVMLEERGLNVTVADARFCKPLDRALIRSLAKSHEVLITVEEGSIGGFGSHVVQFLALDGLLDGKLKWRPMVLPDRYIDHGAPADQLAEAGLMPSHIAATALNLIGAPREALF
The experiment is described as follows: Inhibition of Arabidopsis thaliana N-terminal GST-tagged DXS expressed in Escherichia coli BL21 GOLD (DE) using glyceraldehydephosphate and pyruvate as substrate after 90 min by spectrophotometric analysis.

The test system of experiment [2] is Lemna minor. The experiment is described as follows: Herbicidal activity against Lemna minor (common duckweed) assessed as decrease in chlorophyll fluorescence at 56 mg/l measured for 4 days by picture analysis relative to control. The format is functional, organism-based.
Experiment [3] concerns Lemna minor. The experiment is described as follows: Herbicidal activity against Lemna minor (common duckweed) assessed as growth inhibition at 56 mg/l measured for 6 days by picture analysis relative to control. It counts as functional, organism-based.
The target in experiment [4] is T2, 1-deoxy-D-xylulose 5-phosphate reductoisomerase, chloroplastic (Arabidopsis thaliana, UniProt Q9XFS9).
T2 sequence (Q9XFS9 whole entry): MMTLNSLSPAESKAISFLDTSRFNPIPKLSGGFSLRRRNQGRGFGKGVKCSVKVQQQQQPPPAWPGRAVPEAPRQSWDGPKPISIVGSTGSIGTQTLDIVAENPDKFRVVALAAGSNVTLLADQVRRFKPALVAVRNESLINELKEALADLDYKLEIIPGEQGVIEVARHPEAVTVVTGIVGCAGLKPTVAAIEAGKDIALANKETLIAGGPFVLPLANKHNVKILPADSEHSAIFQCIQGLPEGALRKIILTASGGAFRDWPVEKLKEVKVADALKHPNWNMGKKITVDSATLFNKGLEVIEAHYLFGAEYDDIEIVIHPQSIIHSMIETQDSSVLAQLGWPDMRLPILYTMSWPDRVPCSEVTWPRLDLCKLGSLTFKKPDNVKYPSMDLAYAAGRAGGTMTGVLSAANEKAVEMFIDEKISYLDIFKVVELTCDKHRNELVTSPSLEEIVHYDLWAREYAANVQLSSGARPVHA
The experiment is described as follows: Inhibition of Arabidopsis thaliana IspC expressed in Escherichia coli after 40 min by spectrophotometric analysis.

The target of experiment [5] is T3, 4-diphosphocytidyl-2-C-methyl-D-erythritol kinase, chloroplastic/chromoplastic (Solanum lycopersicum, UniProt P93841).
T3 sequence (P93841 whole entry): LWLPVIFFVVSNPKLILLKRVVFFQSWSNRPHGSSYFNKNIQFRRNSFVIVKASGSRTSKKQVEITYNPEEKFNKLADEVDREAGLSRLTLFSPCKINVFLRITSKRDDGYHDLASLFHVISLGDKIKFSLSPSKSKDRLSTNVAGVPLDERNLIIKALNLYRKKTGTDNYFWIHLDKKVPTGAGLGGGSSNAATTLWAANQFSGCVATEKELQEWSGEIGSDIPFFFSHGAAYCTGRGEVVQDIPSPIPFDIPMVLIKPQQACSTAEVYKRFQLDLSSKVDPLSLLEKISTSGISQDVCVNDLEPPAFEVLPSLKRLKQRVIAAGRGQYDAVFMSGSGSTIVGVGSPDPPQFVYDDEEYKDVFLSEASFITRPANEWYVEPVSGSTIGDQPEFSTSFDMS
The experiment is described as follows: Inhibition of Solanum lycopersicum (tomato) IspE.

Experiment [6] has as its target T4, 2-C-methyl-D-erythritol 2,4-cyclodiphosphate synthase, chloroplastic (Arabidopsis thaliana, UniProt Q9CAK8).
T4 sequence (Q9CAK8 whole entry): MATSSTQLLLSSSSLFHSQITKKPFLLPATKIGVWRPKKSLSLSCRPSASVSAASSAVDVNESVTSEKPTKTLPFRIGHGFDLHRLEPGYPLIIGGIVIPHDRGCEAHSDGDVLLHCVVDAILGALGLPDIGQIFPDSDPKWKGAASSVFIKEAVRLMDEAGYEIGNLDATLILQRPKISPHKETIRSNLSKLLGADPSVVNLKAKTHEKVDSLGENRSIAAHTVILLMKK
The experiment is described as follows: Inhibition of Arabidopsis thaliana IspF expressed in Escherichia coli XL1-Blue after 30 min by spectrophotometric analysis.

The target of experiment [7] is T5, 2-C-methyl-D-erythritol 4-phosphate cytidylyltransferase, chloroplastic (Arabidopsis thaliana, UniProt P69834).
T5 sequence (P69834 whole entry): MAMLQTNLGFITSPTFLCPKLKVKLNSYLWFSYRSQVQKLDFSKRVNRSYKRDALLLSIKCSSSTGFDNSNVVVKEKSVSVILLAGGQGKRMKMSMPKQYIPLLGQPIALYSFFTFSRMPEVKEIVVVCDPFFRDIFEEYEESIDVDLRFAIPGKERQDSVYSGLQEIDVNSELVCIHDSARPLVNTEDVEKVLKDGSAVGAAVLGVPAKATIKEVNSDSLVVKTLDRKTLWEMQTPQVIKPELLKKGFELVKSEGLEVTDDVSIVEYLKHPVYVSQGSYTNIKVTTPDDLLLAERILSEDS
The experiment is described as follows: Inhibition of Arabidopsis thaliana IspD.

In experiment [8] the target is T6, 4-diphosphocytidyl-2-C-methyl-D-erythritol kinase (Escherichia coli (strain K12), UniProt P62615).
T6 sequence (P62615 whole entry): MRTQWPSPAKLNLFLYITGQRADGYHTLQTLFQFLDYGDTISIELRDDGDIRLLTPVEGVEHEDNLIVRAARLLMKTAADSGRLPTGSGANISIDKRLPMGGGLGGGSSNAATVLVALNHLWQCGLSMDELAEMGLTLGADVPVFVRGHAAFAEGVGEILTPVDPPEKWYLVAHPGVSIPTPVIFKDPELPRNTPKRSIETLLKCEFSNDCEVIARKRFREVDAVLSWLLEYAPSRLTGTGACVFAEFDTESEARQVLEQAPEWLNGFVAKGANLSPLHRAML
The experiment is described as follows: Inhibition of Escherichia coli IspE by spectrophotometric analysis.

Calls of active or inactive are those of the source. The rule behind the calls is not given here.

For orientation: IC50 means the concentration needed to halve the response being measured. Read a low IC50 as greater potency in that assay.

`COc1ccc(-c2onc(C(F)(F)F)c2-c2ccc(Br)cc2)c(O)c1` registered an IC50 in experiment [1] of 32 µM. In addition, the result in the experiment on Lemna minor [2] was Active. The “growth inhibition (GI)” value with Lemna minor [3] was “Active”.

For `O=CN(O)CCCP(=O)(O)O` [FOSMIDOMYCIN], the midpoint of inhibition in experiment [4], the IC50, lay at 0.1 µM.

Regarding `NC1=N/C(=N\NC(=O)c2cc(Cl)ccn2)c2ccc3ccccc3c21`, the result in the experiment on Lemna minor [2] was Active. Besides, in experiment [5], 7.2 µM corresponded to half-maximal inhibition (IC50). Besides, the “growth inhibition (GI)” value with Lemna minor [3] is “Active”.

`CC(C)Nc1nc(Nc2ccccc2)nc(Cl)c1-c1c(F)cccc1Cl`: the result with Lemna minor [2] was inactive. Further, the IC50 in experiment [4] amounted to 34 µM. Also, in the experiment on Lemna minor [3], the “growth inhibition (GI)” value is “inactive”.

As to `COc1ccc(/C=N/Nc2nc3ccccc3[nH]2)cc1OCc1ccccc1`, the IC50 in experiment [1] amounted to 49 µM. Besides, in the experiment with Lemna minor [2], the result was inactive. In addition, the “growth inhibition (GI)” value in the experiment on Lemna minor [3] is “inactive”.

For the compound `CCOC(=O)C1=C(C)N=c2s/c(=C\c3cc(Br)c(O)c(Br)c3)c(=O)n2C1c1ccc(OC)cc1` (configuration not stated), half-maximal inhibition in experiment [6] (IC50) required 3.2 µM.

As for `N#Cc1cnn2c(O)c(Cc3ccccc3)c(Cl)nc12`, in experiment [7], inhibition was half-maximal at 0.035 µM (IC50).

On to `Oc1c(Cc2ccccc2)c(Cl)nc2ncnn12`, for which, in the experiment on Lemna minor [2], the result was Active. The “growth inhibition (GI)” value in the experiment on Lemna minor [3] is “Active”.

`O=C(O)c1ccc(-c2ccc(/C=N/Nc3nc4ccccc4s3)o2)cc1` came in with an IC50 in experiment [1] of 33 µM. The outcome in the experiment with Lemna minor [2] was inactive. Also, the “growth inhibition (GI)” value in the experiment on Lemna minor [3] was “inactive”.

As for `NC1=N/C(=N\NC(=O)Cc2cccc3ccccc23)c2ccccc21`, the outcome in the experiment on Lemna minor [2] was inactive. In experiment [5], this compound registered an IC50 of 54 µM. For the same compound, the “growth inhibition (GI)” value in the experiment on Lemna minor [3] is “inactive”.

Compound `COc1ccc2nc(NC(=O)COc3ccc(-c4ccccc4)cc3)sc2c1` displayed an IC50 in experiment [7] of 6.3 µM. Besides, in the experiment with Lemna minor [2], the outcome was inactive. For the same compound, the “growth inhibition (GI)” value in the experiment on Lemna minor [3] was “inactive”.

Take `CCOc1ccc(-c2onc(C(F)(F)F)c2-c2ccc(OC)cc2)c(O)c1`: the IC50 in experiment [1] was determined as 61 µM. The outcome with Lemna minor [2] was Active. Moreover, in the experiment with Lemna minor [3], the “growth inhibition (GI)” value is “Active”.

On to `Nc1ccn([C@@H]2O[C@H](CNC(=O)CCc3nc4ccccc4[nH]3)[C@@H](O)[C@H]2O)c(=O)n1`, for which the IC50 in experiment [8] is 1.7 µM.

`COc1ccc2nc(NC(=O)c3cc(-c4ccccc4O)n[nH]3)sc2c1` came in with an IC50 in experiment [7] of 1.8 µM. Also, the outcome in the experiment on Lemna minor [2] was inactive. Besides, the “growth inhibition (GI)” value in the experiment on Lemna minor [3] is “inactive”.

Consider `CC1(C)C(=O)ON(Cc2ccccc2Cl)C1=O` [KETOCLOMAZONE], for which half-maximal inhibition in experiment [1] (IC50) required 0.08 µM.

Regarding `CCC1(C)Cc2c(sc3nc(SC)nc(O)c23)CS1` (configuration not stated), in the experiment on Lemna minor [2], the result was inactive. The half-maximal inhibitory concentration (IC50) in experiment [4] worked out at 59 µM. The “growth inhibition (GI)” value in the experiment with Lemna minor [3] is “inactive”.

The values above are taken from ChEMBL document CHEMBL3044603, “In search of new herbicidal inhibitors of the non-mevalonate pathway” (Pest Manag Sci, 2013).
